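Briefly, cells in 96-well plates were exposed to five compound concentrations for 48 h, and endpoints were estimated by linear interpolation. At the GI50, growth is halved.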 Activity calls are given as the source filed them. No stated cut-off is given here; in the data, active = GI50 up to about 1.1 µM and inactive = higher.
Tests used:
Assay in all cases: NCI anticancer screen, dose series, 48 h
[1] = test system: A498
[2] = test system: ACHN
[3] = test system: CAKI-1
[4] = test system: CCRF-CEM
[5] = test system: COLO 205
[6] = test system: DLD-1
[7] = test system: DMS-114
[8] = test system: EKVX
[9] = test system: HCT-15
[10] = test system: HL-60
[11] = test system: HOP-18
[12] = test system: HOP-62
[13] = test system: HOP-92
[14] = test system: HT-29
[15] = test system: IGROV-1
[16] = test system: K562
[17] = test system: KM-20L2
[18] = test system: LOX IMVI
[19] = test system: LXFL 529
[20] = test system: M14
[21] = test system: M19-MEL
[22] = test system: MOLT-4
[23] = test system: Malme-3M
[24] = test system: NCI-H226
[25] = test system: NCI-H23
[26] = test system: NCI-H460
[27] = test system: NCI-H522
[28] = test system: OVCAR-3
[29] = test system: OVCAR-8
[30] = test system: RPMI-8226
[31] = test system: RXF 631
[32] = test system: SF-268
[33] = test system: SF-295
[34] = test system: SF-539
[35] = test system: SK-MEL-28
[36] = test system: SK-MEL-2
[37] = test system: SK-MEL-5
[38] = test system: SK-OV-3
[39] = test system: SN12C
[40] = test system: SNB-19
[41] = test system: SNB-75
[42] = test system: SNB-78
[43] = test system: SW-620
[44] = test system: TK-10
[45] = test system: U-251
[46] = test system: UACC-62
[47] = test system: UO-31
[48] = test system: XF498

Compound: CC1=NC(C(=O)O)Cc2c1[nH]c1ccccc21 (stereo not drawn)
- GI50 [1]: > 100 µM (inactive)
- GI50 [2]: > 100 µM (inactive)
- GI50 [3]: > 100 µM (inactive)
- GI50 [4]: > 100 µM (inactive)
- GI50 [5]: > 100 µM (inactive)
- GI50 [6]: > 100 µM (inactive)
- GI50 [7]: > 100 µM (inactive)
- GI50 [8]: > 100 µM (inactive)
- GI50 [9]: > 100 µM
- GI50 [10]: > 100 µM (inactive)
- GI50 [11]: > 100 µM (inactive)
- GI50 [12]: < 0.01 µM (active)
- GI50 [13]: 14.6 µM (inactive)
- GI50 [14]: > 100 µM (inactive)
- GI50 [15]: > 100 µM (inactive)
- GI50 [16]: > 100 µM (inactive)
- GI50 [17]: > 100 µM (inactive)
- GI50 [18]: > 100 µM (inactive)
- GI50 [19]: > 100 µM (inactive)
- GI50 [20]: > 100 µM (inactive)
- GI50 [21]: > 100 µM (inactive)
- GI50 [22]: > 100 µM (inactive)
- GI50 [23]: > 100 µM (inactive)
- GI50 [24]: > 100 µM (inactive)
- GI50 [25]: > 100 µM (inactive)
- GI50 [26]: > 100 µM (inactive)
- GI50 [27]: > 100 µM (inactive)
- GI50 [28]: > 100 µM (inactive)
- GI50 [29]: > 100 µM (inactive)
- GI50 [30]: > 100 µM (inactive)
- GI50 [31]: > 100 µM (inactive)
- GI50 [32]: > 100 µM (inactive)
- GI50 [33]: > 100 µM (inactive)
- GI50 [34]: > 100 µM (inactive)
- GI50 [35]: > 100 µM (inactive)
- GI50 [36]: > 100 µM (inactive)
- GI50 [37]: > 100 µM (inactive)
- GI50 [38]: > 100 µM (inactive)
- GI50 [39]: > 100 µM (inactive)
- GI50 [40]: > 100 µM (inactive)
- GI50 [41]: > 100 µM (inactive)
- GI50 [42]: > 100 µM (inactive)
- GI50 [43]: > 100 µM (inactive)
- GI50 [44]: > 100 µM (inactive)
- GI50 [45]: > 100 µM (inactive)
- GI50 [46]: > 100 µM (inactive)
- GI50 [47]: > 100 µM (inactive)
- GI50 [48]: > 100 µM (inactive)

Reference: ChEMBL document CHEMBL1201862, “PubChem BioAssay data set” (2004)
